ChEMBL document CHEMBL4507259 (2021)

What was measured:
[1] = target: Mitogen-activated protein kinase kinase kinase 13 (Homo sapiens) (UniProt O43283); conditions: Compound concentration 1000.0 nM
[2] = target: Serine/threonine-protein kinase tousled-like 2 (Homo sapiens) (UniProt Q86UE8); conditions: Compound concentration 1000.0 nM
[3] = target: Ephrin type-A receptor 7 (Homo sapiens) (UniProt Q15375); conditions: Compound concentration 1000.0 nM
[4] = target: Mu-type opioid receptor (Homo sapiens) (UniProt P35372); assay: mu (MOP) (h) CEREP ligand profiling; conditions: filed as agonist, Compound concentration 10.0 uM
[5] = target: Phosphatidylinositol 4-kinase beta (Homo sapiens) (UniProt Q9UBF8); conditions: Compound concentration 1000.0 nM
[6] = target: Phosphatidylinositol 5-phosphate 4-kinase type-2 gamma (Homo sapiens) (UniProt Q8TBX8); conditions: Compound concentration 1000.0 nM
[7] = target: GABA-A receptor; anion channel (Homo sapiens) (UniProt P14867+P47870+P18507+P28472+P48169+Q99928+Q9UN88+P34903+O00591+O14764+Q8N1C3+P18505+P78334+P47869+P31644+Q16445); assay: Cl- channel (GABA-gated) CEREP ligand profiling; format: protein-complex assay; conditions: filed as antagonist; Compound concentration 10.0 uM
[8] = target: Serine/threonine-protein kinase PLK4 (Homo sapiens) (UniProt O00444); conditions: Compound concentration 1000.0 nM
[9] = test system: Phosphatidylinositol 4,5-bisphosphate 3-kinase catalytic subunit alpha isoform (Homo sapiens), P42336 [M1043I]; conditions: Compound concentration 1000.0 nM
[10] = target: BMP-2-inducible protein kinase (Homo sapiens) (UniProt Q9NSY1); conditions: Compound concentration 1000.0 nM
[11] = test system: Leucine-rich repeat serine/threonine-protein kinase 2 (Homo sapiens), Q5S007 [G2019S]; conditions: Compound concentration 1000.0 nM
[12] = target: Serine/threonine-protein kinase Nek11 (Homo sapiens) (UniProt Q8NG66); conditions: Compound concentration 1000.0 nM
Chain of Serine/threonine-protein kinase Nek11 (Homo sapiens) (Q8NG66 whole entry): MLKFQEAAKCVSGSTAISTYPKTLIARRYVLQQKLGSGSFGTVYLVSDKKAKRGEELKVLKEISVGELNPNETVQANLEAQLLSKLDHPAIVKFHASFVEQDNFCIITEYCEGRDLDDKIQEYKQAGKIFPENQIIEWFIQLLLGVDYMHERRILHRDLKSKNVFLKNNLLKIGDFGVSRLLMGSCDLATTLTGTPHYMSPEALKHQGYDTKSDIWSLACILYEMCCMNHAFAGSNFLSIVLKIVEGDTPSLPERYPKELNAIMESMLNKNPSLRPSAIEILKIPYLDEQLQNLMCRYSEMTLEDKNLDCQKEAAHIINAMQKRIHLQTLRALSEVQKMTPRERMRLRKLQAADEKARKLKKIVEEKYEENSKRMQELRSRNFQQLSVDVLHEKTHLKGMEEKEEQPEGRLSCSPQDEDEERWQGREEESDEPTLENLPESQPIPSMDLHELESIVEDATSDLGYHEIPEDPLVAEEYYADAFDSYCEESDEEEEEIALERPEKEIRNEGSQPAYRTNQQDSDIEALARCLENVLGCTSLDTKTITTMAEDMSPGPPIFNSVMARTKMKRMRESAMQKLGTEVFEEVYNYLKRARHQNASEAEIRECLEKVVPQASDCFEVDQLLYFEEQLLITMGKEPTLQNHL

[13] = target: Serine/threonine-protein kinase WNK2 (Homo sapiens) (UniProt Q9Y3S1); conditions: Compound concentration 1000.0 nM
[14] = target: Testis-specific serine/threonine-protein kinase 1 (Homo sapiens) (UniProt Q9BXA7); conditions: Compound concentration 1000.0 nM
Chain of Testis-specific serine/threonine-protein kinase 1 (Homo sapiens) (Q9BXA7 whole entry): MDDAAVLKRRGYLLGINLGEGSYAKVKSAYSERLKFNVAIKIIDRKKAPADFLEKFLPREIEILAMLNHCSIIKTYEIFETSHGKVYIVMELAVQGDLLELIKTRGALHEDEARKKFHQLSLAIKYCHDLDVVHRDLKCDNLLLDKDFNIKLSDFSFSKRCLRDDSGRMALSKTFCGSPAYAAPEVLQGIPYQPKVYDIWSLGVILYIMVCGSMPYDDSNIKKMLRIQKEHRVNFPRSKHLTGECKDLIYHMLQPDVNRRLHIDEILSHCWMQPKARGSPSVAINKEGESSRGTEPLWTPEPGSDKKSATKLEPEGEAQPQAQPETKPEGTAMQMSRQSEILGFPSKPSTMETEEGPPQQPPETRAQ

[15] = target: Ephrin type-B receptor 3 (Homo sapiens) (UniProt P54753); conditions: Compound concentration 1000.0 nM
Chain of Ephrin type-B receptor 3 (Homo sapiens) (P54753 whole entry): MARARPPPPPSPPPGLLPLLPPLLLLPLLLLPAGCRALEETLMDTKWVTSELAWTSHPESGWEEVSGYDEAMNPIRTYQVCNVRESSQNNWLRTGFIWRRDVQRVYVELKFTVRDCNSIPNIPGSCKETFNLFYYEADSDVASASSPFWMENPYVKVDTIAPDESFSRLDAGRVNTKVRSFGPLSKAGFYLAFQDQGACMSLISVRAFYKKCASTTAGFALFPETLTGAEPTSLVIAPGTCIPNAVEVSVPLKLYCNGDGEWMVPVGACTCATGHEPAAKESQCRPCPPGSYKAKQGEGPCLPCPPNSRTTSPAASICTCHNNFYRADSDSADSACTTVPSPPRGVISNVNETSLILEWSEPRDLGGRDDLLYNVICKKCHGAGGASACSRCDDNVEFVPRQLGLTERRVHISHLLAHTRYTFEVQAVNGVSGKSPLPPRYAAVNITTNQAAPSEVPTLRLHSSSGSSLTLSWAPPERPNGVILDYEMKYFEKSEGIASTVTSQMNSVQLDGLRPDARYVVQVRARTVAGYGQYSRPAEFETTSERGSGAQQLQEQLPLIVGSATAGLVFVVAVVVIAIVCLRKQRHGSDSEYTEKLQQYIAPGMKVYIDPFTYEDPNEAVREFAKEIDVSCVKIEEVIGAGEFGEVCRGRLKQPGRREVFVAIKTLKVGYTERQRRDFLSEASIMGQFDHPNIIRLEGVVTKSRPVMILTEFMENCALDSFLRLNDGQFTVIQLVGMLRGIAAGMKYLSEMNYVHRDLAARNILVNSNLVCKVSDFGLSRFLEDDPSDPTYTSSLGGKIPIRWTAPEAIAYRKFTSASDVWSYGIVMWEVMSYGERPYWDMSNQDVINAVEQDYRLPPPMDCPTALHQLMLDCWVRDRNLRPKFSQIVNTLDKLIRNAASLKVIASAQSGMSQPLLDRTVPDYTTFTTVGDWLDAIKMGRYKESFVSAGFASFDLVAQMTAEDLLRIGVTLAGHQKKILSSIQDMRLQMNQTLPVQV

[16] = target: Serine/threonine-protein kinase pim-1 (Homo sapiens) (UniProt P11309); conditions: Compound concentration 1000.0 nM
[17] = target: Mitogen-activated protein kinase 4 (Homo sapiens) (UniProt P31152); conditions: Compound concentration 1000.0 nM
[18] = target: T1, Alpha-2B adrenergic receptor (Homo sapiens) (UniProt P18089); conditions: Compound concentration 10.0 uM
T1 sequence (whole entry): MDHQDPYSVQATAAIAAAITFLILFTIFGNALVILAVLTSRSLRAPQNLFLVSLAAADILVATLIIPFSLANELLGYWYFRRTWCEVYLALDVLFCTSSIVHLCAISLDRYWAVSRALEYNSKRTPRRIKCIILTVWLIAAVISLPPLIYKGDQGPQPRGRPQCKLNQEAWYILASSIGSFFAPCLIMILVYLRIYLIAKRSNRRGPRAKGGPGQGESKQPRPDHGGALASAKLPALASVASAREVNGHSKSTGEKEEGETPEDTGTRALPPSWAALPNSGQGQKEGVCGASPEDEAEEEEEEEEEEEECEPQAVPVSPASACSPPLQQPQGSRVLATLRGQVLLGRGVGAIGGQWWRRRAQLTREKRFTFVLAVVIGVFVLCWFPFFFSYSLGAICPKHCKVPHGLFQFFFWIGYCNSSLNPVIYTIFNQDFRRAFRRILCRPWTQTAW

[19] = target: Serine/threonine-protein kinase PknB (Mycobacterium tuberculosis) (UniProt P9WI81); conditions: Compound concentration 1000.0 nM
Chain of Serine/threonine-protein kinase PknB (Mycobacterium tuberculosis) (P9WI81 whole entry): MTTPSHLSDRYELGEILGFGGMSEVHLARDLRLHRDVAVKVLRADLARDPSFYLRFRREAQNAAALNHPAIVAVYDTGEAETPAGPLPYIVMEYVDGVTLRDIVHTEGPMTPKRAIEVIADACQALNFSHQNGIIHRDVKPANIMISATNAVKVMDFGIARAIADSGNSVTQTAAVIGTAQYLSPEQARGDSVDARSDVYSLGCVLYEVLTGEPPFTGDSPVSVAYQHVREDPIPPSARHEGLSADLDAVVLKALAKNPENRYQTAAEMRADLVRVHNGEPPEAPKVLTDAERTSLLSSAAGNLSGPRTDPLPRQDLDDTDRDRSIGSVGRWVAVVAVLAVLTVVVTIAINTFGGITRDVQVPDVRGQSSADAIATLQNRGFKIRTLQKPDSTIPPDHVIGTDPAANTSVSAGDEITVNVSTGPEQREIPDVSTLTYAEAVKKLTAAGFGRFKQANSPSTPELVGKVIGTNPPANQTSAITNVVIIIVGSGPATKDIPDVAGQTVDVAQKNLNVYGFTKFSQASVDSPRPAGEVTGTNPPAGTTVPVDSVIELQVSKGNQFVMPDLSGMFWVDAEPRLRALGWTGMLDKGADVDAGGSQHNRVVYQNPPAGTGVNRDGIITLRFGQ

[20] = target: Endothelin-1 receptor (Homo sapiens) (UniProt P25101); assay: ETA (h) CEREP ligand profiling; conditions: filed as agonist, Compound concentration 10.0 uM
[21] = target: Angiopoietin-1 receptor (Homo sapiens) (UniProt Q02763); conditions: Compound concentration 1000.0 nM
[22] = target: NUAK family SNF1-like kinase 2 (Homo sapiens) (UniProt Q9H093); conditions: Compound concentration 1000.0 nM
[23] = target: D(4) dopamine receptor (Homo sapiens) (UniProt P21917); conditions: Compound concentration 10.0 uM
[24] = test system: Fibroblast growth factor receptor 3 (Homo sapiens), P22607 [G697C]; conditions: Compound concentration 1000.0 nM
[25] = target: Serine/threonine-protein kinase PLK1 (Homo sapiens) (UniProt P53350); conditions: Compound concentration 1000.0 nM
Chain of Serine/threonine-protein kinase PLK1 (Homo sapiens) (P53350 whole entry): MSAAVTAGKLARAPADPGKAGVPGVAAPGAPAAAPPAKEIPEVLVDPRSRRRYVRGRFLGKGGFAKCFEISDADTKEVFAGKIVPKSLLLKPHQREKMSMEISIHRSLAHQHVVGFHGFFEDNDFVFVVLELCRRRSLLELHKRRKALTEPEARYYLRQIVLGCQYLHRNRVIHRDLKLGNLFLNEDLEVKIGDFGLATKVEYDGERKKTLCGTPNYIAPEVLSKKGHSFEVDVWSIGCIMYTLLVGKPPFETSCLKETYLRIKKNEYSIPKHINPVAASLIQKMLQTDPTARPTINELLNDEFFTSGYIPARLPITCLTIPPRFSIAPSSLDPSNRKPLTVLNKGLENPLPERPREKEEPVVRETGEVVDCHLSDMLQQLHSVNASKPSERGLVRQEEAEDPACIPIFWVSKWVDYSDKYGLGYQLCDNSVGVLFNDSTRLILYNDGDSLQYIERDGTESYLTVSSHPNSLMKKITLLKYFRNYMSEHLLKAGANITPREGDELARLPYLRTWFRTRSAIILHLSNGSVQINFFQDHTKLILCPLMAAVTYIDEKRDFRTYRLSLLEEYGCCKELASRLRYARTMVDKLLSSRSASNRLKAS

[26] = target: Substance-P receptor (Homo sapiens) (UniProt P25103); assay: NK1 (h) CEREP ligand profiling; conditions: filed as agonist, Compound concentration 10.0 uM
[27] = target: Mitogen-activated protein kinase 7 (Homo sapiens) (UniProt Q13164); conditions: Compound concentration 1000.0 nM
Chain of Mitogen-activated protein kinase 7 (Homo sapiens) (Q13164 2-816 limits assumed): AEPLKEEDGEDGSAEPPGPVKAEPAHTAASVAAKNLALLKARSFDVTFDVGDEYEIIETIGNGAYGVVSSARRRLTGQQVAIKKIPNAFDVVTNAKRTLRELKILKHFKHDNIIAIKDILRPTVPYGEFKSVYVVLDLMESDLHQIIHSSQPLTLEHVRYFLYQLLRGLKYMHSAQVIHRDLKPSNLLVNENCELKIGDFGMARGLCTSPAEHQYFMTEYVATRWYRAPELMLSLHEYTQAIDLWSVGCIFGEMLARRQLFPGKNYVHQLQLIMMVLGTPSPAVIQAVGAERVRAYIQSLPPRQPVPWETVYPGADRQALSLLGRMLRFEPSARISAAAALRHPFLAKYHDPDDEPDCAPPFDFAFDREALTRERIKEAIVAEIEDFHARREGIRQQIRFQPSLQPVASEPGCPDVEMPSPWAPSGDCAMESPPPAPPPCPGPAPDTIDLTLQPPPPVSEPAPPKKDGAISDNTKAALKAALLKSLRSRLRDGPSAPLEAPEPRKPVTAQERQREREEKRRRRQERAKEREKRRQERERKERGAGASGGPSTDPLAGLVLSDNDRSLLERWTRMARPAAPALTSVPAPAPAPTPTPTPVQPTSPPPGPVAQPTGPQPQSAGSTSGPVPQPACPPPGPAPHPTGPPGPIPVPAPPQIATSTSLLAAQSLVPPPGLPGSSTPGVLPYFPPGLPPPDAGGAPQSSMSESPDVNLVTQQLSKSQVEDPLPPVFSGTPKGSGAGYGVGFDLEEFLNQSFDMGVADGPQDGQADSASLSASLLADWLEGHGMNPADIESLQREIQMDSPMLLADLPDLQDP

[28] = target: Tyrosine-protein kinase JAK3 (Homo sapiens) (UniProt P52333); conditions: Compound concentration 1000.0 nM
[29] = target: cGMP-dependent protein kinase 2 (Homo sapiens) (UniProt Q13237); conditions: Compound concentration 1000.0 nM
[30] = target: Muscle, skeletal receptor tyrosine-protein kinase (Homo sapiens) (UniProt O15146); conditions: Compound concentration 1000.0 nM
[31] = target: Calcium/calmodulin-dependent protein kinase type 1G (Homo sapiens) (UniProt Q96NX5); conditions: Compound concentration 1000.0 nM
[32] = target: Sigma non-opioid intracellular receptor 1 (Homo sapiens) (UniProt Q99720); assay: sigma (non-selective) (h) CEREP ligand profiling; conditions: filed as agonist, Compound concentration 10.0 uM
Chain of Sigma non-opioid intracellular receptor 1 (Homo sapiens) (Q99720 whole entry): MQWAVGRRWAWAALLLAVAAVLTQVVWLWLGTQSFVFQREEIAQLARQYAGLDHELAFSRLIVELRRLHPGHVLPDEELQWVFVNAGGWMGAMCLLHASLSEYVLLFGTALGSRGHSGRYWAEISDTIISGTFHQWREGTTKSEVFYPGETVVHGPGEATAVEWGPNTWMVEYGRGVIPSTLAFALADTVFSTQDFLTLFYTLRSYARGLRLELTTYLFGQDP

[33] = target: Activin receptor type-2B (Homo sapiens) (UniProt Q13705); conditions: Compound concentration 1000.0 nM
[34] = target: Sulfonylurea receptors; K-ATP channels (Homo sapiens) (UniProt Q14654+O60706+Q09428+Q15842); assay: KATP channel CEREP ligand profiling; format: protein-complex assay; conditions: filed as antagonist; Compound concentration 10.0 uM
[35] = target: Focal adhesion kinase 1 (Homo sapiens) (UniProt Q05397); conditions: Compound concentration 1000.0 nM
[36] = target: Phosphatidylinositol 5-phosphate 4-kinase type-2 beta (Homo sapiens) (UniProt P78356); conditions: Compound concentration 1000.0 nM
[37] = target: Tyrosine-protein kinase Fgr (Homo sapiens) (UniProt P09769); conditions: Compound concentration 1000.0 nM

Chain of Serine/threonine-protein kinase tousled-like 2 (Homo sapiens) (Q86UE8 whole entry, looked up): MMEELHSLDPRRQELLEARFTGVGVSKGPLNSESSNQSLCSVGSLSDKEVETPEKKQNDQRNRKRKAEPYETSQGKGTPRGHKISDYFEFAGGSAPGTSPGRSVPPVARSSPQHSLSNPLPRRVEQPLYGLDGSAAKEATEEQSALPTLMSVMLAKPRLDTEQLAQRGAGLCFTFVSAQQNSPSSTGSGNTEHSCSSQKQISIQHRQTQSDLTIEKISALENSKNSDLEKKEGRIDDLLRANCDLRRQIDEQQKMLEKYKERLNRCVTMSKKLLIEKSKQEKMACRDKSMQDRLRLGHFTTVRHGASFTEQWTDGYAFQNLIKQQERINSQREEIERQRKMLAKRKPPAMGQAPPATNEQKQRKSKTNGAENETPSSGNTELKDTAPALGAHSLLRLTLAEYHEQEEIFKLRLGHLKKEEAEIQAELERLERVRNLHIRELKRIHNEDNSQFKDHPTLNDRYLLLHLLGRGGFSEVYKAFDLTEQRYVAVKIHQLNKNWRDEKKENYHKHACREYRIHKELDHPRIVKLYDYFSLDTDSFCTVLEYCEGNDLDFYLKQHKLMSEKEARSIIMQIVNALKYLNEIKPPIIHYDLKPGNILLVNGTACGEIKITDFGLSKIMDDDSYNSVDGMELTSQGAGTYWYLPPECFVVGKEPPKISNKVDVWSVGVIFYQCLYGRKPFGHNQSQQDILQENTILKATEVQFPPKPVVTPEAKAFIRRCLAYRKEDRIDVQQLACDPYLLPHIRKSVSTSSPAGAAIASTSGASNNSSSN

CNC(=O)Nc1ccc2c(c1)CC[C@@]21OC(=O)N(CC(=O)N(Cc2ccc(F)cc2)[C@@H](C)C(F)(F)F)C1=O [A-485]
inactive: residual activity [1] 68% | residual activity [2] 100% | residual activity [3] 88% | inhibition [4] 12% | residual activity [5] 74% | residual activity [6] 93% | inhibition [7] 47% | residual activity [8] 100% | residual activity [9] 100% | residual activity [10] 98% | residual activity [11] 100% | residual activity [12] 91% | residual activity [13] 100% | residual activity [14] 84% | residual activity [15] 80% | residual activity [16] 100% | residual activity [17] 84% | inhibition [18] 26.5% | residual activity [19] 83% | inhibition [20] 3% | residual activity [21] 87% | residual activity [22] 74% | inhibition [23] 7.26% | residual activity [24] 79% | residual activity [25] 63% | inhibition [26] 21% | residual activity [27] 60% | residual activity [28] 73% | residual activity [29] 86% | residual activity [30] 91% | residual activity [31] 100% | inhibition [32] -3% | residual activity [33] 96% | inhibition [34] 24% | residual activity [35] 94% | residual activity [36] 69% | residual activity [37] 75%

CNC(=O)Nc1ccc2c(c1)[C@@]1(CC2)OC(=O)N(CC(=O)N(Cc2ccc(F)cc2)[C@@H](C)C(F)(F)F)C1=O [A-486]
inactive: residual activity [1] 100% | residual activity [2] 100% | residual activity [3] 100% | inhibition [4] 7% | residual activity [5] 71% | residual activity [6] 100% | inhibition [7] 41% | residual activity [8] 100% | residual activity [9] 100% | residual activity [10] 100% | residual activity [11] 100% | residual activity [12] 84% | residual activity [13] 59% | residual activity [14] 100% | residual activity [15] 86% | residual activity [16] 100% | residual activity [17] 98% | inhibition [18] 10.2% | residual activity [19] 84% | inhibition [20] -1% | residual activity [21] 100% | residual activity [22] 77% | inhibition [23] 8.38% | residual activity [24] 96% | residual activity [25] 82% | inhibition [26] 12% | residual activity [27] 85% | residual activity [28] 91% | residual activity [29] 85% | residual activity [30] 100% | residual activity [31] 100% | inhibition [32] 7% | residual activity [33] 100% | inhibition [34] 19% | residual activity [35] 100% | residual activity [36] 60% | residual activity [37] 88%
